From US11219632B2, “Skin pigmentation inhibitor” (Oriental Yeast Co., Ltd., priority 2017, dated 2022)

Columns and labels:
Format in all cases: in vivo, brown guinea pig
[1] = test system: pigmentation induced by ultraviolet; test: Ultraviolet-induced skin pigmentation in brown guinea pigs, oral β-NMN (Example 1); settings: for ΔL value at ultraviolet irradiation site: oral 500 mg/kg body weight once a day
Source text: (§1) Brown guinea pigs (Kw1: line A-1, supplied from Kiwa Laboratory Animals Co., Ltd.) used for the subsequent experiment were bred under SPF environment throughout the entire experimental period. As in a case of humans, it is known that pigmentation of the brown guinea pigs of Kw1: line A-1 is caused by ultraviolet irradiation.
(§2) First, an unanesthetized brown guinea pig was fixed on a fixed plate in an abdominal position, and the back skin was sheared with an electric hair clipper and shaved with an electric shaver. Among the shaved area of the back skin, a region obtained by cutting out a region corresponding to the irradiation site by attaching a tape for bookbinding to an adhesive fabric stretchable bandage (ELASTOPORE No. 50, Nichiban Co., Ltd.) was attached on a site other than the ultraviolet irradiation site, and thereby the region other than the radiation site was light-shielded. Further, the eyes of the guinea pig were also light-shielded from ultraviolet by attaching lint cloth with the adhesive fabric stretchable bandage. Thereafter, ultraviolet (UVB) irradiation was performed from a distance of 40 cm using five SE lamps (wavelength of 250 to 350 nm, FL20S E, Toshiba Corporation) attached to an ultraviolet irradiation apparatus (Y-798-II, Orion Electric Co., Ltd.).
(§3) Regarding oral administration, a solution in which β-NMN (Oriental Yeast Co., Ltd.) was dissolved in injection water (Otsuka Pharmaceutical Factory, Inc.) was orally administered forcedly using a disposable syringe made of polypropylene (Terumo Corporation) attached with a catheter (a nutrition catheter manufactured by JMS Co., Ltd.). […] A dosage was calculated from a body weight value on an administration day or a day close to the administration day, and the dosage was 5 mL/kg.
Effects of […] on pigmentation induced by ultraviolet were examined using brown guinea pigs.
First, six brown guinea pigs were divided into a group administered β-NMN (NMN group) and a group administered injection water (control group). A day performed this group dividing was considered day 0 of administration, and from the next day, the β-NMN solution or injection water was orally administered to the guinea pigs of each group once a day for 42 days. The β-NMN solution was administered at a dosage of 500 mg/kg body weight. […]
(Measurement of pigmentation) L values (brightness) of the skin of the ultraviolet irradiation site of each guinea pig were measured by using Chroma Meter (CR-300, Konica Minolta, Inc.) on the first irradiation day (day 0), and on days 14, 21, and 28. […] On days 0, 14 and 21, L values were measured before the ultraviolet irradiation, and on day 28, L values were measured in the morning. […]

[2] = Body weight of brown guinea pigs during oral β-NMN administration (Example 1); settings: for Body weight: oral 500 mg/kg
Method: First, six brown guinea pigs were divided into a group administered β-NMN (NMN group) and a group administered injection water (control group). A day performed this group dividing was considered day 0 of administration, and from the next day, the β-NMN solution or injection water was orally administered to the guinea pigs of each group once a day for 42 days. The β-NMN solution was administered at a dosage of 500 mg/kg body weight.
A body weight of each guinea pig was measured with an electronic balance in the morning once a week from the first administration day. The measurement was performed before the irradiation on the irradiation day, and before the administration on the β-NMN administration day.

[3] = test system: pigmentation induced by ultraviolet; test: Ultraviolet-induced skin pigmentation in brown guinea pigs, oral and transdermal β-NMN (Example 2); settings: for ΔL value at ultraviolet irradiation site: 28 days from first irradiation
Source text: as §1, §2, §3
Effects of β-NMN on pigmentation induced by ultraviolet were examined using brown guinea pigs.
Ethanol (lot number: DSM5187, Wako Chemical Co., Ltd.), 1,3-butanediol (lot number: TWQ 6672, Wako Pure Chemical Industries, Ltd.), and injection water (lot number: K5F71, Otsuka Pharmaceutical Factory, Inc.) were mixed at a ratio of 1:1:8 (a volume ratio), and used as a solvent. A solution dissolved β-NMN in this solvent at a concentration of 0.5% by mass was used as a β-NMN-containing external preparation.
First, six brown guinea pigs were divided into a group orally administered β-NMN and a group not administered β-NMN. […]

Question: Which results are given for NC(=O)c1ccc[n+]([C@@H]2O[C@H](COP(=O)([O-])O)[C@@H](O)[C@H]2O)c1 [NMN, Nicotinamide mononucleotide]?
Answer: ΔL value at ultraviolet irradiation site ([1]; day 14 after first irradiation): 8.28; ΔL value at ultraviolet irradiation site ([1]; day 21 after first irradiation): 8.99; ΔL value at ultraviolet irradiation site ([1]; day 28 after first irradiation): 9.55; Pigmentation compared to the control group ([1]; oral 500 mg/kg body weight once a day for 42 days): pigmentation was inhibited; Body weight ([2]; 0 days after first administration): 405 ± 22 g; Body weight ([2]; 1 day after first administration): 408 ± 23 g; Body weight ([2]; 8 days after first administration): 431 ± 23 g; Body weight ([2]; 15 days after first administration): 462 ± 33 g; Body weight ([2]; 22 days after first administration): 497 ± 34 g; Body weight ([2]; 29 days after first administration): 529 ± 29 g; Body weight ([2]; 36 days after first administration): 551 ± 35 g; Body weight ([2]; 43 days after first administration): 584 ± 33 g; Body weight difference versus control group ([2]; oral 500 mg/kg once a day for 42 days): no significant difference in body weight; ΔL value at ultraviolet irradiation site ([3]; NMN oral administration group (oral 500 mg/kg, solvent only on skin)): 6.01; ΔL value at ultraviolet irradiation site ([3]; NMN transdermal & oral administration group (oral 500 mg/kg plus 0.05 mL of 0.5% by mass external preparation per site)): 5.20; Pigmentation compared with the control group ([3]; oral administration only): pigmentation was inhibited; Pigmentation compared with only oral administration ([3]; transdermal administration in addition to oral administration): pigmentation was further inhibited
